Data taken from PubChem BioAssay AID256 (DTP/NCI, 2004).
Values joined by “and” are separate entries in the source; they are usually repeats but may differ in a detail not shown here. Identical values can stand only once. Inconclusive results and toxic doses are left out. Non-standard residues stand in square brackets, D forms with d. Residues, ends and D or L forms follow the SMILES beside them. *: point of attachment. Cbz = O=C(OCc1ccccc1)*; Nva = CCC[CH](N)C(=O)O

System: CD2F1 mice, L1210 leukemia ip, survival T/C
Assay: NCI In Vivo Anticancer Drug Screen. Data for tumor model L1210 Leukemia (intraperitoneal) in CD2F1 (CDF1) mice
Settings: higher = longer survival
Outline: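 Read-out first: treated-group measurement over vehicle-control measurement, expressed as a ratio. Animals bore a transplanted tumor line and were dosed with compound or vehicle.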

[1] = endpoint: mean survival time, dose: 100.0 mg/kg/injection, schedule: Q01DX009 (ip), vehicle: saline with Tween-80
[2] = endpoint: mean survival time, dose: 100.0 mg/kg/injection, schedule: Q04DX003 (ip), vehicle: saline
[3] = endpoint: mean survival time, dose: 200.0 mg/kg/injection, schedule: Q01DX009 (ip), vehicle: saline with Tween-80
[4] = endpoint: mean survival time, dose: 200.0 mg/kg/injection, schedule: Q04DX003 (ip), vehicle: saline
[5] = endpoint: mean survival time, dose: 400.0 mg/kg/injection, schedule: Q01DX009 (ip), vehicle: saline with Tween-80
[6] = endpoint: mean survival time, dose: 400.0 mg/kg/injection, schedule: Q04DX003 (ip), vehicle: saline
[7] = endpoint: mean survival time, dose: 100.0 mg/kg/injection, schedule: Q04DX003 (ip), vehicle: saline with Tween-80
[8] = endpoint: mean survival time, dose: 200.0 mg/kg/injection, schedule: Q04DX003 (ip), vehicle: saline with Tween-80
[9] = endpoint: mean survival time, dose: 400.0 mg/kg/injection, schedule: Q04DX003 (ip), vehicle: saline with Tween-80

CCCCN(CCCC)CCCN1C(=O)c2ccccc2C1=O
T/C (endpoint: mean survival time, dose: 1.9 mg/kg/injection, schedule: Q01DX009 (ip), vehicle: saline): 97 % of control
T/C (endpoint: mean survival time, dose: 3.7 mg/kg/injection, schedule: Q01DX009 (ip), vehicle: saline): 107 % of control
T/C (endpoint: mean survival time, dose: 7.5 mg/kg/injection, schedule: Q01DX009 (ip), vehicle: saline): 100 % of control
T/C (endpoint: mean survival time, dose: 15.0 mg/kg/injection, schedule: Q01DX009 (ip), vehicle: saline): 87 % of control
T/C (endpoint: mean survival time, dose: 30.0 mg/kg/injection, schedule: Q01DX009 (ip), vehicle: saline): 89 % of control and 105 % of control

CCOC(=O)Cc1cccc(C)n1
T/C [1]: 104 % of control
T/C [2]: 94 % of control
T/C [3]: 98 % of control
T/C [4]: 92 % of control
T/C [5]: 100 % of control
T/C [6]: 94 % of control

COCCN=C(N)C(N)=NCCOC
T/C (endpoint: mean survival time, dose: 100.0 mg/kg/injection, schedule: Q01DX009 (ip), vehicle: saline): 105 % of control
T/C (endpoint: mean survival time, dose: 200.0 mg/kg/injection, schedule: Q01DX009 (ip), vehicle: saline): 103 % of control
T/C (endpoint: mean survival time, dose: 400.0 mg/kg/injection, schedule: Q01DX009 (ip), vehicle: saline): 102 % of control

N#CC1CC2C=CC1C2 (stereo not drawn)
T/C (endpoint: mean survival time, dose: 5.0 mg/kg/injection, schedule: Q01DX009 (ip), vehicle: saline): 98 % of control
T/C (endpoint: mean survival time, dose: 5.0 mg/kg/injection, schedule: Q04DX003 (ip), vehicle: saline): 95 % of control
T/C (endpoint: mean survival time, dose: 10.0 mg/kg/injection, schedule: Q01DX009 (ip), vehicle: saline): 98 % of control
T/C (endpoint: mean survival time, dose: 10.0 mg/kg/injection, schedule: Q04DX003 (ip), vehicle: saline): 97 % of control
T/C (endpoint: mean survival time, dose: 20.0 mg/kg/injection, schedule: Q01DX009 (ip), vehicle: saline): 87 % of control
T/C (endpoint: mean survival time, dose: 20.0 mg/kg/injection, schedule: Q04DX003 (ip), vehicle: saline): 100 % of control

Cn1c(=O)[nH]c(=O)c2cc(Cl)ccc21
T/C (endpoint: mean survival time, dose: 100.0 mg/kg/injection, schedule: Q04DX002 (ip), vehicle: saline with Tween-80): 101 % of control
T/C (endpoint: mean survival time, dose: 200.0 mg/kg/injection, schedule: Q04DX002 (ip), vehicle: saline with Tween-80): 106 % of control
T/C (endpoint: mean survival time, dose: 400.0 mg/kg/injection, schedule: Q04DX002 (ip), vehicle: saline with Tween-80): 121 % of control

O=C(/C=C1\C(=O)Nc2ccccc21)/C=C1/C(=O)Nc2ccccc21
T/C (endpoint: mean survival time, dose: 25.0 mg/kg/injection, schedule: Q01DX009 (ip), vehicle: Klucel (hydroxypropylcellulose) (HPC)): 97 % of control
T/C (endpoint: mean survival time, dose: 50.0 mg/kg/injection, schedule: Q01DX009 (ip), vehicle: Klucel (hydroxypropylcellulose) (HPC)): 104 % of control
T/C (endpoint: mean survival time, dose: 100.0 mg/kg/injection, schedule: Q01DX009 (ip), vehicle: Klucel (hydroxypropylcellulose) (HPC)): 95 % of control

CCCC[S+](CCCC)CC(=O)c1ccc(-c2ccccc2)cc1
T/C (endpoint: mean survival time, dose: 0.19 mg/kg/injection, schedule: Q01DX009 (ip), vehicle: saline with Tween-80): 97 % of control
T/C (endpoint: mean survival time, dose: 0.39 mg/kg/injection, schedule: Q01DX009 (ip), vehicle: saline with Tween-80): 101 % of control
T/C (endpoint: mean survival time, dose: 0.76 mg/kg/injection, schedule: Q01DX009 (ip), vehicle: saline with Tween-80): 98 % of control
T/C (endpoint: mean survival time, dose: 1.56 mg/kg/injection, schedule: Q01DX009 (ip), vehicle: saline with Tween-80): 97 % of control
T/C (endpoint: mean survival time, dose: 1.56 mg/kg/injection, schedule: Q01DX009 (ip), vehicle: saline): 86 % of control
T/C (endpoint: mean survival time, dose: 3.12 mg/kg/injection, schedule: Q01DX009 (ip), vehicle: saline with Tween-80): 98 % of control
T/C (endpoint: mean survival time, dose: 3.13 mg/kg/injection, schedule: Q01DX009 (ip), vehicle: saline): 87 % of control
T/C (endpoint: mean survival time, dose: 12.5 mg/kg/injection, schedule: Q01DX009 (ip), vehicle: saline): 87 % of control
T/C (endpoint: mean survival time, dose: 25.0 mg/kg/injection, schedule: Q01DX009 (ip), vehicle: saline): 87 % of control

CSC(=NC#N)N(C)C
T/C (endpoint: mean survival time, dose: 25.0 mg/kg/injection, schedule: Q04DX003 (ip), vehicle: saline sonified): 105 % of control
T/C (endpoint: mean survival time, dose: 50.0 mg/kg/injection, schedule: Q04DX003 (ip), vehicle: saline sonified): 95 % of control
T/C (endpoint: mean survival time, dose: 100.0 mg/kg/injection, schedule: Q01DX001 (ip), vehicle: saline with Tween-80): 114 % of control

O=S(=O)(O)SCc1ccccc1
T/C [7]: 97 % of control
T/C [8]: 92 % of control
T/C [9]: 98 % of control

Cc1cc(C)c(C(=O)C(=S)N2CCOCC2)c(C)c1
T/C (endpoint: mean survival time, dose: 100.0 mg/kg/injection, schedule: Q04DX003 (ip), vehicle: acetone): 98 % of control
T/C (endpoint: mean survival time, dose: 200.0 mg/kg/injection, schedule: Q04DX003 (ip), vehicle: acetone): 104 % of control
T/C (endpoint: mean survival time, dose: 400.0 mg/kg/injection, schedule: Q04DX003 (ip), vehicle: acetone): 93 % of control

Cc1ccc(Cl)c(S(=O)(=O)F)c1
T/C [1]: 88 % of control
T/C [7]: 106 % of control
T/C [3]: 103 % of control
T/C [8]: 93 % of control
T/C [5]: 101 % of control
T/C [9]: 100 % of control

COc1cc2c(c(OC)c1OC)-c1ccc(SC)c(=O)cc1[C@@H](NC1OCC(O)C(O)C1O)CC2 (stereo partly drawn)
T/C (endpoint: mean survival time, dose: 6.0 mg/kg/injection, schedule: Q01DX009 (ip), vehicle: other): 102 % of control
T/C (endpoint: mean survival time, dose: 12.0 mg/kg/injection, schedule: Q01DX009 (ip), vehicle: other): 120 % of control
T/C (endpoint: mean survival time, dose: 12.5 mg/kg/injection, schedule: Q01DX009 (ip), vehicle: other): 106 % of control
T/C (endpoint: mean survival time, dose: 25.0 mg/kg/injection, schedule: Q01DX009 (ip), vehicle: other): 119 % of control
T/C (endpoint: mean survival time, dose: 100.0 mg/kg/injection, schedule: Q01DX009 (ip), vehicle: other): 88 % of control

CC(=O)NC(C)C(C)(C)O (stereo not drawn)
T/C [2]: 91 % of control
T/C [4]: 101 % of control
T/C [6]: 95 % of control

CCCC(NC(=O)C(C)NC(=O)OCc1ccccc1)C(N)=O (stereo not drawn) (Cbz-Ala-[Nva]-NH2; configuration not given here)
T/C [1]: 90 % of control
T/C [3]: 92 % of control
T/C [5]: 92 % of control

COc1cc2c(c(Oc3ccc(C)cc3)c1)CN(C)CC2
T/C (endpoint: mean survival time, dose: 25.0 mg/kg/injection, schedule: Q04DX003 (ip), vehicle: saline): 105 % of control
T/C (endpoint: mean survival time, dose: 50.0 mg/kg/injection, schedule: Q04DX003 (ip), vehicle: saline): 100 % of control
T/C [2]: 105 % of control

Nc1ccn(C2CC(CO)C(O)C2O)c(=O)n1 (stereo not drawn)
T/C (endpoint: mean survival time, dose: 150.0 mg/kg/injection, schedule: Q01DX009 (ip), vehicle: saline): 204 % of control

Nc1nc(=O)n(C2OC(CO)C(O)C2F)cc1I (stereo not drawn)
T/C (endpoint: median survival time, dose: 12.5 mg/kg/injection, schedule: Q01DX005 (ip), vehicle: saline): 103 % of control
T/C (endpoint: median survival time, dose: 25.0 mg/kg/injection, schedule: Q01DX005 (ip), vehicle: saline): 102 % of control
T/C (endpoint: median survival time, dose: 50.0 mg/kg/injection, schedule: Q01DX005 (ip), vehicle: saline): 104 % of control
T/C (endpoint: median survival time, dose: 100.0 mg/kg/injection, schedule: Q01DX005 (ip), vehicle: saline): 97 % of control
T/C (endpoint: median survival time, dose: 200.0 mg/kg/injection, schedule: Q01DX005 (ip), vehicle: saline): 103 % of control

CC(C)=CCC(O)C1=CC(=O)c2c(O)ccc(O)c2C1=O (stereo not drawn)
T/C (endpoint: mean survival time, dose: 7.5 mg/kg/injection, schedule: Q04DX003 (ip), vehicle: saline sonified): 98 % of control
T/C (endpoint: mean survival time, dose: 15.0 mg/kg/injection, schedule: Q04DX003 (ip), vehicle: saline sonified): 102 % of control
T/C (endpoint: mean survival time, dose: 30.0 mg/kg/injection, schedule: Q04DX003 (ip), vehicle: saline sonified): 101 % of control

CC(C)CCCC(C)C1CCC2C3CCC4CC(=O)C=CC4(C)C3CCC12C (stereo not drawn)
T/C (endpoint: mean survival time, dose: 75.0 mg/kg/injection, schedule: Q04DX003 (sc), vehicle: steriod suspending solution): 100 % of control
T/C (endpoint: mean survival time, dose: 150.0 mg/kg/injection, schedule: Q04DX003 (sc), vehicle: steriod suspending solution): 101 % of control
T/C (endpoint: mean survival time, dose: 300.0 mg/kg/injection, schedule: Q04DX003 (sc), vehicle: steriod suspending solution): 101 % of control

COc1cc(-c2ccc(-[n+]3nc(Cc4ccc5c(c4)OCO5)nn3-c3ccccc3)c(OC)c2)ccc1-[n+]1nc(Cc2ccc3c(c2)OCO3)nn1-c1ccccc1
T/C [7]: 98 % of control
T/C [8]: 97 % of control
